{"source": "the OPERA property sets (Mansouri et al. 2018)", "note": "Non-standard residues stand in square brackets, D forms with d. Residues, ends and D or L forms follow the SMILES beside them."}
{"molecule": "OCC1OC(O)C(O)C(O)C1O", "note": "(centres undefined)", "logP": -3.24}
{"molecule": "CCCCCCNC(=O)n1cc(F)c(=O)[nH]c1=O", "logP": 2.63}
{"molecule": "COc1ccc(C(=O)OCC2OC(n3cc(I)c(=O)[nH]c3=O)CC2O)cc1", "note": "(centres undefined)", "logP": 1.38}
{"molecule": "Nc1ccc(C(=O)O)cc1N", "logP": 0.13}
{"molecule": "CN(Cc1ccc(Br)cc1)N=O", "logP": 1.57}
{"molecule": "COc1ncnc(NS(=O)(=O)c2ccc(N)cc2)c1OC", "logP": 0.7}
{"molecule": "CN1CCN(Cc2ncc([N+](=O)[O-])n2C)CC1", "logP": -0.32}
{"molecule": "CN1C(=O)NC(c2ccccc2)(c2ccccc2)C1=O", "logP": 2.28}
{"molecule": "CCNP(=O)(OCC)ON=C(C#N)c1ccc(OC)cc1", "note": "(centres undefined)", "logP": 2.39}
{"molecule": "CNC(=O)NCCCn1nc(-c2ccccc2)ccc1=O", "logP": 1.16}
{"molecule": "CNc1nc(C)c(C(=O)CCN2CCOCC2)s1", "logP": 0.95}
{"molecule": "CC(C)c1cccc(C2C(=O)c3ccccc3C2=O)c1", "logP": 4.43}
{"molecule": "CCOCCOCCOP(=O)(N1CC1)N1CC1", "logP": 0.1}
{"molecule": "CCOC(=O)c1cc(=O)[nH]c(=O)[nH]1", "logP": 0.68}
{"molecule": "CCCCSc1nnc(C(C)C)c(=O)n1N", "logP": 3.21}
{"molecule": "CCN(CC)C(=O)CCn1ccc(=O)c(O)c1C", "logP": -0.36}
{"molecule": "O=C(O)c1cc(O)nc(O)n1", "logP": -0.83}
{"molecule": "CCCC(=O)OCn1cc2c(=O)[nH]cnc2n1", "logP": 0.33}
{"molecule": "CCCOc1ccc(OCC(OC(=O)n2ccnc2)C(C)(C)C)cc1", "note": "(centres undefined)", "logP": 4.1}
{"molecule": "Cc1cc2n(c1C(=O)c1ccccc1)CCC2C(=O)O", "note": "(centres undefined)", "logP": 2.85}
{"molecule": "N#Cc1ccccc1OCC(O)CNCCNC(=O)Cc1ccc(O)cc1", "note": "(centres undefined)", "logP": 0.92}
{"molecule": "CNc1nc(C)c(C(=O)CCN2CCCCC2)s1", "logP": 2.21}
{"molecule": "CCCCCCN(C)C(=O)c1cccc(Oc2ccccc2)c1", "logP": 5.01}
{"molecule": "CSc1ncnc2c1ncn2[C@@H]1O[C@H](CO)[C@@H](O)[C@H]1O", "logP": 0.09}
{"molecule": "CCCOC(=O)n1c(NC(=O)OC)nc2cc(C(=O)c3ccccc3)ccc21", "logP": 3.43}
{"molecule": "Cn1c([N+](=O)[O-])cnc1C1CC1", "logP": 1}
{"molecule": "CC(=O)OC(CNC(C)C)COc1cccc2ccccc12", "note": "(centres undefined)", "logP": 4.34}
{"molecule": "NC(=O)NCCCCn1nc(-c2ccccc2)ccc1=O", "logP": 1.21}
{"molecule": "Cc1cccc2nc3n(c(=O)c12)CCC3", "logP": 1.59}
{"molecule": "COC(=O)c1cc(=O)[nH]c(=O)[nH]1", "logP": 0.63}
{"molecule": "CC(C)(C)C(COc1ccc(I)cc1)OC(=O)n1ccnc1", "note": "(centres undefined)", "logP": 4.3}
{"molecule": "COCC(C)n1ccc(=O)c(O)c1C", "note": "(centres undefined)", "logP": -0.26}
{"molecule": "CC(C)(C)C(COc1ccccc1)OC(=O)n1ccnc1", "note": "(centres undefined)", "logP": 3.58}
{"molecule": "COC(=O)C1CC2C3CCC4=CC(=O)C=CC4(C)C3C(O)CC2(C)C1C(=O)CO", "note": "(centres undefined)", "logP": 1.7}
{"molecule": "CCc1ncc([N+](=O)[O-])n1CCNC(=S)OC", "logP": 1.46}
{"molecule": "CCOC(=O)CN(C(=O)CCl)c1ccccc1OC(C)C", "logP": 2.75}
{"molecule": "Cc1cc(O)c(N)nn1", "logP": -0.85}
{"molecule": "CNC12CC(O)CCC1CCc1ccccc12", "note": "(centres undefined)", "logP": 2.37}
{"molecule": "COC(=O)n1cc(CC(NC(=O)CC2NC(=O)C3C4CCC(CC4)N3C2=O)C(=O)NC(Cc2ccccc2)C(=O)N(C)Cc2ccccc2)c2ccccc21", "note": "(centres undefined)", "logP": 4.05}
{"molecule": "CNC(=O)Oc1cc(C)c(N(C)C)c(C)c1", "logP": 2.56}
{"molecule": "Cc1c(F)c(F)c(C(=O)O)c(F)c1F", "logP": 3.15}
{"molecule": "CCC(=O)OCOC(=O)c1cn(CC)c2nc(C)ccc2c1=O", "logP": 1.7}
{"molecule": "Cn1nnnc1SCC1=C(C(=O)O)N2C(=O)[C@@H](NC(=O)[C@H](O)c3ccccc3)[C@H]2SC1", "logP": 0.5}
{"molecule": "CCN1C(=O)NC(Cc2ccccc2)C1=O", "note": "(centres undefined)", "logP": 1.61}
{"molecule": "Nc1ncn(C2OC(CO)C(O)C2O)c(=O)n1", "note": "(centres undefined)", "logP": -2.17}
{"molecule": "CCC(CC)(C(=O)NC(N)=O)C(=O)OC(C)C", "logP": 1.99}
{"molecule": "COc1cccc(C2(O)CCCCC2CN(C)C)c1", "note": "(centres undefined)", "logP": 2.51}
{"molecule": "CCc1c(O)c(=O)ccn1CCOC", "logP": 0.04}
{"molecule": "CCN(C)C(=O)c1cccc(Oc2ccccc2)c1", "logP": 2.98}
{"molecule": "O=C1c2ccccc2C(=O)C1c1cccc(Cl)c1", "logP": 3.61}
{"molecule": "CCCc1c(C)nc2ccccn2c1=O", "logP": 1.75}
{"molecule": "CC1CCC=C2N(C)C=C(C(N)=O)C(=O)N21", "note": "(centres undefined)", "logP": 0.12}
{"molecule": "COC(=O)NC1=NCC(c2ccccc2Cl)N1C", "note": "(centres undefined)", "logP": 2.08}
{"molecule": "CCC(C)(C)c1ccc(CC(=O)O)cc1", "logP": 3.48}
{"molecule": "COc1ccc2c(c1)[nH]c1c(C)nccc12", "logP": 3.56}
{"molecule": "Cc1ccc(C=O)o1", "logP": 0.67}
{"molecule": "OCCN(CCO)Cc1cccc(COc2ccccc2)c1", "logP": 2.33}
{"molecule": "Clc1ccc(-c2ccc(Cl)c(Cl)c2Cl)cc1Cl", "logP": 6.79}
{"molecule": "Cc1ccc(C)c(C(=O)NS(=O)(=O)c2ccc(N)cc2)c1", "logP": 2.19}
{"molecule": "CCC(=O)n1c(=O)[nH]cc(F)c1=O", "logP": 0.19}
{"molecule": "CC(C)Cc1ccc(CC(=O)O)cc1", "logP": 3.35}
{"molecule": "CN(C)C(=O)OCc1ccc(C(N)=O)cc1", "logP": 0.77}
{"molecule": "Nc1cc(Cl)c(Cl)c(Cl)c1Cl", "logP": 4.27}
{"molecule": "CCn1cc(C(=O)O)c(=O)c2cc(F)c(N3CCN(C)CC3)c(F)c21", "logP": 0.3}
{"molecule": "CNC(=O)N(C)c1nnc(C(F)(F)F)s1", "logP": 1.85}
{"molecule": "O=C(Nc1ccn(C2CC(O)C(CO)O2)c(=O)n1)c1ccccc1", "note": "(centres undefined)", "logP": 0.67}
{"molecule": "CCCCc1ccc(OCC(OC(=O)n2ccnc2)C(C)(C)C)cc1", "note": "(centres undefined)", "logP": 4.97}
{"molecule": "NS(=O)(=O)c1cc2c(cc1[N+](=O)[O-])N=CNS2(=O)=O", "logP": 0.08}
{"molecule": "ClC(Br)Br", "logP": 2.16}
{"molecule": "CCCCC(=O)OCC1OC(n2cc(F)c(=O)[nH]c2=O)CC1OC(=O)CCCC", "note": "(centres undefined)", "logP": 2.72}
{"molecule": "C=C1C(=O)OC2CC3=CC(CC4(C)OC4C(O)C12)OC3=O", "note": "(centres undefined)", "logP": -0.64}
{"molecule": "COc1ccc(OCC(OC(=S)n2ccnc2)C(C)(C)C)cc1", "note": "(centres undefined)", "logP": 4.31}
{"molecule": "CC(=O)NN1CC=CCC1", "logP": 0.52}
{"molecule": "CC(=O)N[C@H](Cc1ccccc1)C(=O)N[C@H](Cc1ccccc1)C(N)=O", "note": "(Ac-[dF]-[dF]-NH2)", "logP": 1.19}
{"molecule": "CC(C)(CN1CCCCC1)C(=O)c1ccccc1", "logP": 3.78}
{"molecule": "CCCCn1ccc(=O)c(O)c1C", "logP": 0.7}
{"molecule": "CCCCCCCCn1ccc(=O)c(O)c1C", "logP": 2.88}
{"molecule": "COP(=S)(OC)Oc1cc(Cl)c(Cl)cc1Cl", "logP": 4.88}
{"molecule": "Nc1ccc(C(=O)O)cc1I", "logP": 2.36}
{"molecule": "CCON1C(=O)CC2(CCCC2)C1=O", "logP": 1.26}
{"molecule": "COC(=O)C1=C(C)NC(C)=C(C(=O)OC(C)C)C1c1cccc2nonc12", "note": "(centres undefined)", "logP": 4.28}
{"molecule": "CC(=O)Nc1ccc(Cl)cc1", "logP": 2.09}
{"molecule": "CCOP(=O)(OCC)Oc1ccc([N+](=O)[O-])cc1", "logP": 1.98}
{"molecule": "CN(C)CCN(Cc1cccs1)c1ccccn1", "logP": 2.87}
{"molecule": "O=C1COC(=O)N1c1ccccc1", "logP": 0.93}
{"molecule": "Clc1ccccc1", "logP": 2.84}
{"molecule": "CCc1nc(S(=O)(=O)Nc2c(F)cccc2F)nn1-c1ccccc1", "logP": 3.7}
{"molecule": "Nc1cc(Cl)c(Cl)cc1Cl", "logP": 3.45}
{"molecule": "CCC1(O)CC2CN(CCc3c([nH]c4ccccc34)C(C(=O)OC)(c3cc4c(cc3OC)N(C)C3C(O)(C(=O)OC)C(OC(=O)CN(C)C)C5(CC)C=CCN6CCC43C65)C2)C1", "note": "(centres undefined)", "logP": 4.02}
{"molecule": "CC(C(O)c1ccccc1)N(C)C", "note": "(centres undefined)", "logP": 1.7}
{"molecule": "O=c1[nH]c(=O)n(-c2ccc(Cl)cc2Cl)cc1F", "logP": 1.96}
{"molecule": "Cc1onc(-c2ccccc2Cl)c1C(=O)NC1C(=O)N2C1SC(C)(C)C2C(=O)O", "note": "(centres undefined)", "logP": 2.48}
{"molecule": "CNC(=O)NC(=O)C(C)(C(=O)OCOC)C1=CCCCC1", "note": "(centres undefined)", "logP": 1.8}
{"molecule": "NS(=O)(=O)c1cc2c(cc1Cl)NC(C(F)(F)F)NS2(=O)=O", "note": "(centres undefined)", "logP": 0.49}
{"molecule": "CCOc1ccc(OCC(OC(=O)n2ccnc2)C(C)(C)C)cc1", "note": "(centres undefined)", "logP": 3.86}
{"molecule": "COC1CC(OC2CCC3(C)C2CCC2C3CCC3(C)C(C4=CC(=O)OC4)CCC23O)OC(C)C1O", "note": "(centres undefined)", "logP": 2.37}
{"molecule": "COC(=O)c1c(C)[nH]c(-c2ccc(Cl)cn2)c1C(=O)OC", "logP": 2.7}
{"molecule": "CNC12CCCCC1COc1ccccc12", "note": "(centres undefined)", "logP": 3.31}
{"molecule": "Nc1c(Cl)c(Cl)cc(Cl)c1Cl", "logP": 4.1}
